Assay results taken from patent publication US20220056019A1, “FARNESOID X RECEPTOR AGONISTS AND USES THEREOF” (Metacrine, Inc., priority 2018, published 2022).
pEC50: −log10 of the molar value.

Target: T1, hFXR (Homo sapiens, UniProt Q96RI1)
T1 construct: expressed in transfected cells; host or cells: CV-1 cells
T1 sequence (Q96RI1 1-486): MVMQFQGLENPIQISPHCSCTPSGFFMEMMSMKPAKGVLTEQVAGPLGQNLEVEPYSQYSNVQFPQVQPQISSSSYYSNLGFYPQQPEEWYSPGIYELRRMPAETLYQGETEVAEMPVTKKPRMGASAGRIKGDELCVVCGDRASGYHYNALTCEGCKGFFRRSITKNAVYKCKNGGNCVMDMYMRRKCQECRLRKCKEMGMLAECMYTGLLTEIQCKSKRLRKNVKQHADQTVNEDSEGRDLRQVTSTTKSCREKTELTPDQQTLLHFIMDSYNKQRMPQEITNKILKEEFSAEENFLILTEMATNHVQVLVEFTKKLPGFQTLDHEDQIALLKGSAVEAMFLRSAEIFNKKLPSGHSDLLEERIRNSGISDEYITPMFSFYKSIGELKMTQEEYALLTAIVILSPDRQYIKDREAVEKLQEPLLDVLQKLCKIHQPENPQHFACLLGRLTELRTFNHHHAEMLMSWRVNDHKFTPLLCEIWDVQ
T1 sequence (P19793 1-462 partner): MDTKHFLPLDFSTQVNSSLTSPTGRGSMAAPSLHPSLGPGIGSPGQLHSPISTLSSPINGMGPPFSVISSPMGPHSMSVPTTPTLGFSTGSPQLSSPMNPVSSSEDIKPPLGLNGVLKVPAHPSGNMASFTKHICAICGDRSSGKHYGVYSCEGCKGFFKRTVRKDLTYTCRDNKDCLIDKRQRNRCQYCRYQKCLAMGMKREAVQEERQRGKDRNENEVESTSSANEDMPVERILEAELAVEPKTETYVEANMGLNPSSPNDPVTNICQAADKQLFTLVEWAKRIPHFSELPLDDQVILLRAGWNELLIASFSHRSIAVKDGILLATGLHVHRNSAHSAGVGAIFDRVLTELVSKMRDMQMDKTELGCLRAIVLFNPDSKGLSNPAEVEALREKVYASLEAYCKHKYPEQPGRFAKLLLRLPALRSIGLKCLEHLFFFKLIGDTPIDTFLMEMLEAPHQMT
Assay: In Vitro FXR Assay (TK): TK-ECRE-luc reporter in transfected CV-1 cells
Type: cell-based
Conditions: 18 hrs incubation, luminescence
Outline: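 Luminescence from a TK-ECRE-luc reporter was read after 18 h of compound exposure in CV-1 cells. These cells were grown in charcoal-stripped FBS medium and transiently transfected with hFXR, hRXR and YFP expression plasmids.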

| Compound | pEC50 |
| --- | --- |
| COc1ccc(C23CCC(CN(c4cncc(-c5cnn(C6(C)CCC6)c5)n4)C(=O)[C@H]4CC[C@H](OC(=O)N5CC(O)C5)CC4)(CC2)CC3)cc1C [Compound 25.27, 4-(((4-(4-Methoxy-3-methylphenyl)bicyclo[2.2.2]octan-1-yl)methyl)(6-(1-(1-methylcyclobutyl)-1H-pyrazol-4-yl)pyrazin-2-yl)carbamoyl)cyclohexyl trans-3-hydroxyazetidine-1-carboxylate] | ≥ 7.30 |
| COc1ncc([C@H]2CC[C@H](CN(c3cc(-c4cnn(C(C)C)c4)ccn3)C(=O)[C@H]3CC[C@H](OC(=O)N4CC(N(C)C)C4)CC3)CC2)cc1C [Compound 1.04, trans-4-((4-(1-Isopropyl-1H-pyrazol-4-yl)pyridin-2-yl)(((trans)-4-(6-methoxy-5-methylpyridin-3-yl)cyclohexyl)methyl)carbamoyl) cyclohexyl 3-(dimethylamino)azetidine-1-carboxylate] | ≥ 7.30 |
| COc1ccc(C23CCC(CN(C(=O)C4CCC(OC(=O)N5CC(O)C5)CC4)c4cc(C5CCCN(C(C)C)C5)ccn4)(CC2)CC3)cc1C (stereo not drawn) [Compound 26.18, 4-((4-(1-Isopropylpiperidin-3-yl)pyridin-2-yl)((4-(4-methoxy-3-methylphenyl)bicyclo[2.2.2]octan-1-yl)methyl)carbamoyl)cyclohexyl trans-3-hydroxyazetidine-1-carboxylate] | 5.00 to 6.00 |
| CCc1nc(-c2ccnc(N(C[C@H]3CC[C@H](c4ccc(OC)c(C)c4)CC3)C(=O)[C@H]3CC[C@H](OC(=O)N4CCN(C)CC4)CC3)c2)co1 [Compound 2.48, trans-4-((4-(2-Ethyloxazol-4-yl)pyridin-2-yl)((trans-4-(4-methoxy-3-methylphenyl)cyclohexyl)methyl)carbamoyl)cyclohexyl 4-methylpiperazine-1-carboxylate] | 6.00 to 7.30 |
| COc1ccc([C@H]2CC[C@](F)(CN(c3cccc(-c4cnn(C(C)C)c4)c3)C(=O)[C@H]3CC[C@H](OC(=O)N4CC(O)C4)CC3)CC2)cc1C [Compound 25.01, 4-((((trans)-1-Fluoro-4-(4-methoxy-3-methylphenyl)cyclohexyl)methyl)(3-(1-isopropyl-1H-pyrazol-4-yl)phenyl)carbamoyl)(trans-cyclohexyl) 3-hydroxyazetidine-1-carboxylate] | ≥ 7.30 |
| COc1ccc(C23CCC(CN(c4cc(-c5cnn(C(C)C)c5)ccn4)C(=O)[C@H]4CC[C@H](OC(=O)N5CC(O)C5)CC4)(CC2)CC3)cc1F [Compound 26.08, 4-(((4-(3-Fluoro-4-methoxyphenyl)bicyclo[2.2.2]octan-1-yl)methyl)(4-(1-isopropyl-1H-pyrazol-4-yl)pyridin-2-yl)carbamoyl)cyclohexyl trans-3-hydroxyazetidine-1-carboxylate] | ≥ 7.30 |
| COc1ccc([C@H]2CC[C@H](CN(c3cc(-c4cnn(C(C)C)c4)ccn3)C(=O)[C@H]3CC[C@H](OC(=O)NCCCF)CC3)CC2)cc1C [Compound 2.29, trans-4-((4-(1-Isopropyl-1H-pyrazol-4-yl)pyridin-2-yl)(((trans)-4-(4-methoxy-3-methylphenyl)cyclohexyl)methyl)carbamoyl) cyclohexyl(3-fluoropropyl)carbamate] | ≥ 7.30 |
| COc1ccc([C@H]2CC[C@H](CN(c3cccc(-c4cnn(C(C)C)c4)c3)C(=O)[C@H]3CC[C@H](OC(=O)N4CCN(C)CC4)CC3)CC2)cc1C#N [Compound 5.08, trans-4-((((trans)-4-(3-Cyano-4-methoxyphenyl)cyclohexyl)methyl)(3-(1-isopropyl-1H-pyrazol-4-yl)phenyl)carbamoyl)cyclohexyl4-methylpiperazine-1-carboxylate] | ≥ 7.30 |
| COc1ccc(C23CCC(CN(c4cc(-c5cnn(C(C)C)c5)ccc4F)C(=O)[C@H]4CC[C@H](OC(=O)N5CC(O)C5)CC4)(CC2)CC3)cc1C [Compound 25.03, 4-((2-Fluoro-5-(1-isopropyl-1H-pyrazol-4-yl)phenyl)((4-(4-methoxy-3-methylphenyl)bicyclo[2.2.2]octan-1-yl)methyl)carbamoyl)cyclohexyl trans-3-hydroxyazetidine-1-carboxylate] | ≥ 7.30 |
| COc1ccc(C23CCC(CN(c4cc(-c5cnn(C(C)C)c5)ccn4)C(=O)[C@H]4CC[C@H](OC(=O)N5CC(N(C)C)C5)CC4)(CC2)CC3)cc1C [Compound 4.12, 4-((4-(1-Isopropyl-1H-pyrazol-4-yl)pyridin-2-yl)((4-(4-methoxy-3-methylphenyl)bicyclo [2.2.2]octan-1-yl)methyl)carbamoyl)cyclohexyl 3-(dimethylamino) azetidine-trans-1-carboxylate] | ≥ 7.30 |
| COc1ccc(C23CCC(CN(c4cc(-c5cnn(C6CCS(=O)(=O)CC6)c5)ccn4)C(=O)[C@H]4CC[C@H](OC(=O)N5CC(O)C5)CC4)(CC2)CC3)cc1C [Compound 26.23, 4-((4-(1-(1,1-Dioxidotetrahydro-2H-thiopyran-4-yl)-1H-pyrazol-4-yl)pyridin-2-yl)((4-(4-methoxy-3-methylphenyl)bicyclo[2.2.2]octan-1-yl)methyl)carbamoyl)cyclohexyl trans-3-hydroxyazetidine-1-carboxylate] | 5.00 to 6.00 |
| COc1ccc(C23CCC(CN(c4ccc(F)c(-c5cnn(C(C)C)c5)c4)C(=O)[C@H]4CC[C@H](OC(=O)N5CC(O)C5)CC4)(CC2)CC3)cc1C [Compound 26.03, 4-((4-Fluoro-3-(1-isopropyl-1H-pyrazol-4-yl)phenyl)((4-(4-methoxy-3-methylphenyl)bicyclo[2.2.2]octan-1-yl)methyl)carbamoyl)(trans-cyclohexyl) 3-hydroxyazetidine-1-carboxylate] | ≥ 7.30 |
| COc1ccc(C23CCC(CN(c4cc(-c5nnn(C(C)C)n5)ccn4)C(=O)[C@H]4CC[C@H](OC(=O)N5CC(O)C5)CC4)(CC2)CC3)cc1C [Compound 26.16, 4-((4-(2-Isopropyl-2H-tetrazol-5-yl)pyridin-2-yl)((4-(4-methoxy-3-methylphenyl)bicyclo[2.2.2]octan-1-yl)methyl)carbamoyl)cyclohexyl trans-3-hydroxyazetidine-1-carboxylate] | ≥ 7.30 |
| COc1ccc(C23CCC(CN(c4cc(-c5cnn(C(C)C)c5)c(F)cn4)C(=O)[C@H]4CC[C@H](OC(=O)N5CC(CO)C5)CC4)(CC2)CC3)cc1C [Compound 25.06, 4-((5-Fluoro-4-(1-isopropyl-1H-pyrazol-4-yl)pyridin-2-yl)((4-(4-methoxy-3-methylphenyl)bicyclo[2.2.2]octan-1-yl)methyl)carbamoyl)cyclohexyl trans-3-(hydroxymethyl)azetidine-1-carboxylate] | ≥ 7.30 |
| COc1ccc(C23CCC(CN(c4cc(-c5cnn(C(C)C)c5)ccn4)C(=O)[C@H]4CC[C@H](OC(=O)NC(C)C)CC4)(CC2)CC3)cc1C [Compound 4.04, 4-((4-(1-Isopropyl-1H-pyrazol-4-yl)pyridin-2-yl)((4-(4-methoxy-3-methylphenyl)bicyclo [2.2.2]octan-1-yl)methyl)carbamoyl)cyclohexyl trans-isopropylcarbamate] | ≥ 7.30 |
| COc1ccc([C@H]2CC[C@H](CN(c3cccc(-c4cnn(C5CC5)c4)c3)C(=O)[C@H]3CC[C@H](C(C)O)CC3)CC2)cc1C (stereo partly drawn) [Compound 21, trans-N-(3-(1-Cyclopropyl-1H-pyrazol-4-yl)phenyl)-4-(1-hydroxyethyl)-N-((trans-4-(4-methoxy-3-methylphenyl)cyclohexyl)methyl)cyclohexanecarboxamide] | ≥ 7.30 |
| COc1ccc(C23CCC(CN(c4ccnc(-c5cnn(C(C)C)c5)c4)C(=O)[C@H]4CC[C@H](OC(=O)N5CC(O)C5)CC4)(CC2)CC3)cc1C [Compound 4.59, 4-((2-(1-Isopropyl-1H-pyrazol-4-yl)pyridin-4-yl) ((4-(4-methoxy-3-methylphenyl)bicyclo [2.2.2]octan-1-yl)methyl)carbamoyl)(trans-cyclohexyl) 3-hydroxyazetidine-1-carboxylate] | ≥ 7.30 |
| COc1ccc(C23CCC(CN(c4cc(-n5ccc(C(C)C)n5)ccn4)C(=O)[C@H]4CC[C@H](OC(=O)N5CC(O)C5)CC4)(CC2)CC3)cc1C [Compound 23.15, 4-((4-(3-Isopropyl-1H-pyrazol-1-yl)pyridin-2-yl)((4-(4-methoxy-3-methylphenyl)bicyclo[2.2.2]octan-1-yl)methyl)carbamoyl)cyclo-hexyl trans-3-hydroxyazetidine-1-carboxylate] | ≥ 7.30 |
| COc1ccc([C@H]2CC[C@H](CN(c3cccc(-c4cnn(C(C)C)c4)c3)C(=O)[C@H]3CC[C@H](CN)CC3)CC2)cc1C [Compound 11, (trans)-4-(Aminomethyl)-N-(3-(1-isopropyl-1H-pyrazol-4-yl)phenyl)-N-(((trans)-4-(4-methoxy-3-methylphenyl)cyclohexyl)methyl)cyclohexanecarboxamide] | 5.00 to 6.00 |
